Measured values taken from patent US12329754B2 (priority 2018, dated 2025).
Structures can show the parent of a compound that is named as a salt. Where two headings read alike, the source gives them in different places.

What was measured:
[1] = system: EBOV-Zaire GP/HIV-luc pseudovirus; assay type: cell-based, Zaire ebolavirus
[2] = system: MARV-GP/HIV-luc pseudovirus; test: microbe, parasite or virus in culture; assay type: cell-based; details: read-out: EC50 against the Marburg virus entering the host
[3] = system: EBOV-Zaire GP/HIV-luc pseudovirus; test: organism not typed; assay type: cell-based, Zaire ebolavirus; details: for EC50: HEK-293T, read-out: half-maximum effect concentration (EC50) against EBOV
[4] = system: LASV-GP/HIV-luc pseudovirus; test: organism not typed; assay type: cell-based; details: read-out: EC50 against the Lassa virus entering the host
[5] = system: 293T cells

O=C1Nc2ccc(Cl)cc2[C@@](C#CC2CC2)(C(F)(F)F)O1 [efavirenz]
inhibition effect on the virus when added at 6 h (TOA) [1]: still had an inhibition effect

COc1cc2c3cc1Oc1c(OC)c(OC)cc4c1[C@@H](Cc1ccc(O)c(c1)Oc1ccc(cc1)C[C@@H]3N(C)CC2)N(C)CC4 [berbamine dihydrochloride]
EC50 [2]: 990 nM
inhibition rate on the EBOV-Zaire GP/HIV-luc pseudovirus [3]: over 80%
EC50 ([3]; 48 h): 490 nM
EC50 [3]: 490 nM
EC50 [4]: 2640 nM
effect on cell activity (CCK-8, OD 450 nm) [5]: no significant effect
